Results from paper PMC3115942 (PLoS ONE, 2011).

Tests used:
SUIT-2 xenograft = assay: SUIT-2 subcutaneous xenograft in CB17/SCID mice; assay type: in vivo
GLI1 mRNA in PC-3 cells = assay: Real time PCR of GLI1 mRNA in PC-3; assay type: cell-based, human; conditions: 48 hrs
Experimental: (§1) Cells were lysed for RNA extraction after 48 or 72 hours of treatment. Total RNA from cultured cells or tumor tissue was isolated using the GeneElute miniprep kit (Sigma-Aldritch) following the manufacturer^'s instructions. cDNA was synthesized from the isolated mRNA using the Retroscript kit (Ambion), and real-time PCR was carried out using the SYBR Green PCR master mix (Stratagene) according to the manufacturer^'s instructions with an Mx3000P cycler (Stratagene). The relative concentrations of cDNA present in each sample were calculated by the MxPro software (Stratagene), normalized for GAPDH (mRNA from cells) or GUS (mRNA from tumors). For real time PCR primer sequences see Table 6. For the tumor tissue real time PCR, previously described human and mouse specific primers against GUSB, PTCH1 and GLI1were used.

58 kinases = assay: Millipore kinase diversity panel (whole panel); assay type: biochemical; conditions: 10 µM
[1] = system: Gli1 or Gli2 (GliBS-Luc, NIH3T3 cells); assay: GliBS-Luc reporter in NIH3T3 cells with forced Gli1 or Gli2 expression; assay type: cell-based; conditions: 10 µM, 48 hours
Experimental: Vectors were obtained from the following: GliBS-Luc reporter (gift from H. Sasaki), pBluescript (pBS) (Stratagene), FL-HA-GLI1 (Gli1) and Gli2-GFP (Gli2) (gifts from R. Toftgård), Super8XTOPFlash, and NFkB-luc (Panomics). 10 ng renilla luciferase (pRL-TK) (Promega) was used as a transfection control. HEK293 and NIH3T3 cells were seeded at 80,000 per well in 48-well plates on day 1, and were co-transfected on day 2 using a total of 0.4 µg plasmid per well mixed at 1∶3 in FUGENE6 according to manufacturer^'s instructions. On day 3, control medium and activating medium (50% L1 conditioned medium, 50% Shh conditioned medium or medium containing 10 ng/mL recombinant rcrTNF-α (R&D Systems)) +/− 10–20 µM MS-0022 were added, using DMSO as a control (the NFkB pathway inhibitor Bay11-7082 was used as a control in the NFkB assay). Samples were analyzed on day 4 or 5 using the Dual Luciferase assay kit according to manufacturer^'s instructions. Graphs display relative or fold reporter activity, and are calculated from a mean ratio of firefly reporter luminescence/pRL-TK luminescence with standard deviation error bars (n = 3). The experiments have been repeated with similar results.

PANC-1 xenograft = assay: PANC-1 subcutaneous xenograft in CB17/SCID mice; assay type: in vivo, mouse
Experimental: as §1
(§2) For PANC-1 xenografts, 4–6 week old CB17/SCID mice were injected with 5×10^6 PANC-1 (n = 6 per group) cells in 200 µl PBS subcutaneously on day 1. IP treatment with 50 mg/kg MS-0022 began when median tumor size reached 25 mm^2 (day 27). MS-0022 was pulverized using a pestle, and was mixed into a stable suspension in water containing 1% Tween 80 (Sigma-Aldrich). Mice were treated with MS-0022 or solvent for a period of 30 days after initiation in a 5 day injection 2 day pause scheme, and tumor size was measured throughout using calipers (mm^2). After 30 days the mice were sacrificed and tumors dissected and weighed. The PANC-1 xenograft endpoint was taken two days after the last compound treatment.

PC-3 cells = assay: Passage growth assay, PC-3; assay type: cell-based, human; conditions: 5 µM, passages of 5–7 days
Experimental: (§3) 20,000 cells were seeded per well in 6 well plates (triplicates) with DMSO or 5 µM MS-0022. Treatment medium was changed on day 3–5, and after 5–7 days the cells were trypsinized, re-suspended in medium and counted, before reseeding cells at 20,000/well for a subsequent passage. The average growth of MS-0022 treated cells was calculated as a percentage of the growth of the DMSO control at the end of each passage. Graphs display average of percent growth with standard deviation bars (n = 3).

[2] = Liver transaminases (AST/ALT) in xenografted mice; assay type: in vivo, mouse; conditions: 50 mg/kg, 30 days injection scheme (5 day injection, 2 day pause), PANC-1 xenograft mice
Experimental: as §2
Blood was collected from the hepatic vein of freshly sacrificed animals into heparinized capillary blood collection tubes (Sarstedt), which were immediately centrifuged and the serum was collected. AST and ALT were run on non-hemolyzed samples using AST and ALT kits (Randox) following the manufacturer^'s instructions.

PANC-1 cells = assay: Soft agar colony formation assay, PANC-1; assay type: cell-based, human; conditions: 21 days
Experimental: 2000 PANC-1 or SUIT-2 cells were suspended in 1.5 mL growth media containing 0.35% agar (Oxoid), over a 1.5 mL base layer containing 0.5% agar in 6-well plates. The plates were incubated for 14 days (SUIT-2) and 21 days (PANC-1) and then stained for 1 h with 1 ml of 0.02% crystal violet (Sigma-Aldrich), and colonies were counted according to sizes; <0.2 mm (small), 0.2–1 mm (medium) and >1 mm (large). Data represent average numbers with standard deviation bars (n = 3). The experiments have been repeated with similar result.

THLE-2 cells = assay: Passage growth assay, THLE-2; assay type: cell-based; conditions: 5 µM
Experimental: as §3

[3] = Compound concentration in mouse liver tissue; assay type: in vivo; conditions: C57BL, 5 mg/kg, 2 hours after IP administration
[4] = 50 mg/kg daily PO, 18 days, vs control group
[5] = QD, IP at 50 mg/kg, 5 day injection/2 day pause, end of treatment, vs control solvent

Q: With `Cc1cccn2cc(-c3ccc(NC(=O)c4ccccc4Br)cc3)nc12` [MS-0022, 2-bromo-N-(4-(8-methylimidazo[1,2-a]pyridin-2-yl)phenyl)benzamide] as the compound, how does the “animal weight, SUIT-2 xenograft mice” value (SUIT-2 xenograft; 50 mg/kg daily PO) read?
A: Its value is “unaffected”.

Q: And the “outwards signs of toxicity, SUIT-2 xenograft mice” value (SUIT-2 xenograft; 50 mg/kg daily PO)?
A: Its value is “did not result in any outwards signs of toxicity”.

Q: And the “reduction in tumor volume, SUIT-2 xenograft” value (SUIT-2 xenograft; [4])?
A: Its value is 27%.

Q: And the “reduction in tumor weight, SUIT-2 xenograft” value (SUIT-2 xenograft; [4])?
A: The value was 36%.

Q: What about the “mouse (stromal) Gli1 mRNA in SUIT-2 tumors” value (SUIT-2 xenograft; after 7 days of treatment, 50 mg/kg PO, 50 mg/kg) of the same compound?
A: The value was “reduced significantly”.

Q: And the “human or mouse Gli1, or Ptch1 mRNA levels in SUIT-2 tumors” value (SUIT-2 xenograft; endpoint of the experiment (18 days), 50 mg/kg PO)?
A: The value was “no statistical relevant reduction”.

Q: And the “GLI1 mRNA levels, PC-3” value (GLI1 mRNA in PC-3 cells)?
A: Its value is “reduced GLI1 mRNA levels”.

Q: And the “inhibition of kinases of the diversity panel (in words)” value (58 kinases)?
A: Its value is “did not significantly inhibit”.

Q: What about the “inhibition of Gli1 or Gli2 when pathway further activated by Shh” value ([1]; 50% Shh conditioned medium) of the same compound?
A: The value was “partial inhibition”.

Q: What about the “Hh pathway inhibitory effect at the level of forced Gli1 or Gli2 expression” value ([1]; without Shh) of the same compound?
A: The value was “not detected”.

Q: And the “reduction in tumor volume, PANC-1 xenograft” value (PANC-1 xenograft; [5])?
A: The value was 38%.

Q: And the “reduction in tumor weight, PANC-1 xenograft” value (PANC-1 xenograft; [5])?
A: Its value is 33%.

Q: What about the “human (tumor) or mouse (stroma) Ptch1 or Gli1 mRNA levels in PANC-1 tumors” value (PANC-1 xenograft; endpoint of the experiment, 50 mg/kg IP) of the same compound?
A: The value was “no statistically relevant difference”.

Q: What about the “growth reduction after passage 2, PC-3” value (PC-3 cells) of the same compound?
A: The value was 80%.

Q: What about the AST/ALT levels [2] of the same compound?
A: Its AST/ALT levels is “greater than 1”.

Q: What about the “soft agar colony formation, PANC-1” value (PANC-1 cells) of the same compound?
A: Its value is “reduction in large (Figure 2C–D, and G) and medium sized colonies”.

Q: And the “growth by the second passage, THLE-2” value (THLE-2 cells)?
A: The value was “not affected”.

Q: What about the concentration at 2 h [3] of the same compound?
A: Its concentration at 2 h is 244 ng/g.
